Measurements as given in patent US7390910B2, “Compounds for treating tumors” (priority 2003, dated 2008).

Key:
[1] = system: bovine microtubule-associated protein (MAP)-rich tubulin; type: biochemical; details: 0.3 uM
Outline: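 This in vitro polymerization assay used bovine tubulin rich in microtubule-associated proteins, prepared at 1.5 mg/ml in GPEM (PEM buffer containing 1 mM GTP) and cleared by a 12,000×g spin. Tubulin solution (100 μl/well) was dispensed onto duplicate 10 μl test samples. Control wells held 0.3% DMSO. A SpectraMax Plus reader recorded turbidity at 340 nm every minute over 60 min at 24° C.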

Colo205 = assay: Cell survival assay (SRB), Colo205; type: cell-based; details: Homo sapiens, COLO 205, 72 h, Colo205 cells, 3 days
Protocol: (§1) Cell Survival Assay: Standard Pharmacological Test Procedure. […] Compounds are incubated with cells for 3 days.

KB cells = assay: cells; type: cell-based; details: Homo sapiens, KB, 72 h, 3 days, SRB
Protocol: as §1

KBV1 = assay: cells; type: cell-based; details: for inhibition at 3 µM: KB-V1, 3000 nM; for IC50: 3 days, SRB
Protocol: as §1

KB85 = assay: cells; type: cell-based; details: 72 h, 3 days, SRB
Protocol: as §1

Compound | Tubulin Polym. % inhibition at 0.3 uM [1] | IC50 (Colo205) | IC50 (KB cells) | inhibition at 3 µM (KBV1; Homo sapiens) | IC50 (KBV1; Homo sapiens, KB-V1, 72 h) | IC50 (KB85) | KBV1 % inhibition @6000 (KBV1) | IC50 (KBV1; trifluoroacetic acid)
C/C(=C\[C@H](C(C)C)N(C)C(=O)[C@@H](NC(=O)C(Cc1ccccc1)C(C)(C)c1ccccc1)C(C)(C)C)C(=O)O (stereo partly drawn) [Example 96, (E,4S)-4-[((2S)-3,3-dimethyl-2-{[3-methyl-2-benzyl-3-phenylbutanoyl]amino}butanoyl)(methyl)amino]-2,5-dimethyl-2-hexenoic acid] | 46% | 340 nM | 846 nM | 11% | 2630 nM | 1120 nM | – | –
CCC(C(=O)N[C@H](C(=O)N(C)[C@H](/C=C(\C)C(=O)O)C(C)C)C(C)(C)C)C(C)(C)c1ccccc1 (stereo partly drawn) [Example 100, (E,4S)-4-[((2S)-3,3-dimethyl-2-{[3-methyl-2-ethyl-3-phenylbutanoyl]amino}butanoyl)(methyl)amino]-2,5-dimethyl-2-hexenoic acid] | 54% | 190 nM | 957 nM | – | 5260 nM | 1150 nM | – | –
C=CCC(C(=O)N[C@H](C(=O)N(C)[C@H](/C=C(\C)C(=O)O)C(C)C)C(C)(C)C)C(C)(C)c1ccccc1 (stereo partly drawn) [Example 98, (E,4S)-4-[((2S)-3,3-dimethyl-2-{[3-methyl-2-allyl-3-phenylbutanoyl]amino}butanoyl)(methyl)amino]-2,5-dimethyl-2-hexenoic acid] | 63% | 270 nM | 1150 nM | – | – | 1200 nM | 42%@6000 | –
CCOC(=O)/C(C)=C/[C@H](C(C)C)N(C)C(=O)[C@@H](NC(=O)C(Cc1ccccc1)C(C)(C)c1ccccc1)C(C)(C)C (stereo partly drawn) [Example 95, Ethyl (E,4S)-4-[((2S)-3,3-dimethyl-2-{[3-methyl-2-(benzyl)-3-phenylbutanoyl]amino}butanoyl)(methyl)amino]-2,5-dimethyl-2-hexenoate] | – | > 1000 nM | 575 nM | 15% | – | 756 nM | – | –
CCOC(=O)/C(C)=C/[C@H](C(C)C)N(C)C(=O)[C@@H](NC(=O)C(SC)C(C)(C)c1ccccc1)C(C)(C)C (stereo partly drawn) [Example 101, Ethyl (E,4S)-4-[((2S)-3,3-dimethyl-2-{[3-methyl-2-methylsulfanyl-3-phenylbutanoyl]amino}butanoyl)(methyl)amino]-2,5-dimethyl-2-hexenoate] | – | > 1000 nM | 1100 nM | – | 4580 nM | 1820 nM | – | –
CN[C@H](C(=O)N[C@H](C(=O)N(C)[C@H](/C=C(\C)C=O)C(C)C)C(C)(C)C)C(C)(C)c1ccc([S+](C)C)cc1.O=C(O)C(F)(F)F [Example 83, 4-(dimethylsulfonio)-N,β,β-trimethyl-L-phenylalanyl-N^1-[(1S,2E)-1-isopropyl-3-methyl-4-oxo-2-butenyl]-N^1,3-dimethyl-L-valinamide trifluoroacetic acid] | 0% | 46 nM | – | – | 2400 nM | – | – | > 3000 nM
CCOC(=O)/C(C)=C/[C@H](C(C)C)N(C)C(=O)[C@@H](NC(=O)C(CC)C(C)(C)c1ccccc1)C(C)(C)C (stereo partly drawn) [Example 99, Ethyl (E,4S)-4-[((2S)-3,3-dimethyl-2-{[3-methyl-2-ethyl-3-phenylbutanoyl]amino}butanoyl)(methyl)amino]-2,5-dimethyl-2-hexenoate] | – | > 1000 nM | 3480 nM | – | – | 3640 nM | 16%@6000 | –
C=CCC(C(=O)N[C@H](C(=O)N(C)[C@H](/C=C(\C)C(=O)OCC)C(C)C)C(C)(C)C)C(C)(C)c1ccccc1 (stereo partly drawn) [Example 97, Ethyl (E,4S)-4-[((2S)-3,3-dimethyl-2-{[3-methyl-2-allyl-3-phenylbutanoyl]amino}butanoyl)(methyl)amino]-2,5-dimethyl-2-hexenoate] | – | > 1000 nM | 1910 nM | – | – | 3320 nM | 17%@6000 | –
